Values belong to the compound of their own block, whether it stands above or below them.
Key:
[1] = everolimus; cited from earlier work
[2] = Everolimus pharmacokinetics in whole blood (HPLC-MS/MS), single-agent and combined with metformin; assay type: in vivo, human; conditions: for k el: read-out: λz (converted); for half-life: all 7 patients, mean (SD)
Experimental: (§1) The pharmacokinetic parameters were calculated using PKSolver. All P values were calculated using the R statistical programming language (paired Student’s t-test).

endometrial cancer = conditions: cited from earlier work
clinical = test: clinical
Experimental: as §1

Cmax ([2]; everolimus 5 mg qd, in combination with metformin 500 mg bid, n = 2): 39.45 ng/mL | Cmax ([2]; everolimus 5 mg qd, single-agent, n = 2): 34.80 ng/mL | AUC ([2]; everolimus 10 mg qd, single-agent, AUC t = 0 to 24 h, n = 5, mean (SD)): 0.713 (0.35) mg/l*h | AUC ([2]; human, whole blood, oral, 5 mg, everolimus 5 mg qd, single-agent, n = 2, read-out: AUC): 282 ng·h/mL | k el ([2]; human, whole blood, oral, 5 mg, everolimus 5 mg qd, single-agent, n = 2): 1.22e-05 s⁻¹ | k el ([2]; human, whole blood, oral, 10 mg, everolimus 10 mg qd, single-agent, n = 5, mean (SD)): 7.78e-06 s⁻¹ | clearance ([2]; human, whole blood, oral, everolimus as single agent): 162 mL/min | clearance ([2]; human, whole blood, oral, everolimus in combination with metformin): 300 mL/min | AUC ([2]; human, whole blood, oral, everolimus 5 mg qd, in combination with metformin, n = 2, read-out: AUC): 254 ng·h/mL | k el ([2]; human, whole blood, oral, everolimus 5 mg qd, in combination with metformin, n = 2): 9.72e-06 s⁻¹ | AUC ([2]; human, whole blood, oral, everolimus 10 mg qd, in combination with metformin, AUC t = 0 to 24 h, n = 5, mean (SD), read-out: AUC): 639 ng·h/mL | k el ([2]; human, whole blood, oral, everolimus 10 mg qd, in combination with metformin, n = 5, mean (SD)): 8.06e-06 s⁻¹ | half-life ([2]; human, whole blood, oral, everolimus in combination with metformin (day 15)): 23.2 h | half-life ([2]; human, whole blood, oral, everolimus single-agent (day 7)): 23.1 h | Cmax ([2]; human, whole blood, oral, everolimus 10 mg qd, single-agent (day 7), n = 5, mean (SD), read-out: Cmax): 73.1 ng/mL
SMILES: CO[C@H]1C[C@@H]2CC[C@@H](C)[C@@](O)(O2)C(=O)C(=O)N2CCCC[C@H]2C(=O)O[C@H]([C@H](C)C[C@@H]2CC[C@@H](OCCO)[C@H](OC)C2)CC(=O)[C@H](C)/C=C(\C)[C@@H](O)[C@@H](OC)C(=O)[C@H](C)C[C@H](C)/C=C/C=C/C=C/1C [everolimus]
elimination half-life (t1/2) [1]: 30 h

SMILES: CN(C)C(=N)N=C(N)N [metformin]
rate of disease progression (endometrial cancer; self-reported metformin use with an mTOR inhibitor, vs. 33% without): 12% | response rate to an mTOR inhibitor (endometrial cancer; self-reported metformin use, 94 patients, three trials of various mTOR inhibitors, vs. 7% without): 18% | AUC (clinical; human, in vivo, 500 mg): 8320 ng·h/mL | k el (clinical; human, in vivo, 500 mg): 4.72e-05 s⁻¹ | Cmax (clinical; metformin 500 mg bid, in combination with everolimus (day 15), n = 5, mean (SD)): 1027 (261) μg/l
